O=C(O)c1ccccc1O
solubility (mole fraction)
Details	278.15 K	283.15 K	288.15 K	293.15 K	298.15 K	303.15 K	308.15 K	313.15 K	318.15 K
in ethanol	0.108	0.117	0.126	0.136	0.145	0.157	0.17	0.182	0.197
in n-butanol	0.106	0.116	0.126	0.137	0.148	0.16	0.174	0.186	0.201
in n-heptanol	0.117	0.128	0.138	0.148	0.16	0.171	0.185	0.197	0.21
in n-hexanol	0.116	0.127	0.137	0.146	0.158	0.169	0.182	0.195	0.209
in n-pentanol	0.113	0.123	0.132	0.144	0.155	0.166	0.18	0.192	0.206
in n-propanol	0.102	0.111	0.12	0.131	0.143	0.154	0.168	0.181	0.196
